From US20080081827A1, “Use of a Pyrazole-Derived Compound that is an Antagonist for Cannabinoid CB1 Receptors, for Treating or Preventing Chronic Bronchitis or Chronic Obstructive Bronchopneumopathy” (SANOFI AVENTIS, priority 2004, published 2008)
Read-outs that look alike come from different tables or passages of the source.

Columns and labels:
[1] = obese patients, clinical studies; cited from earlier work
[2] = tested on: LPS-induced migration of neutrophil and mononuclear cells in the bronchoalveolar space; assay: Migration of cells in the bronchoalveolar space after activation with bacterial LPS; assay type: in vivo; settings: mice, doses 0.3 to 30 mg/kg; for ED50: Mus musculus, i.p. 1 hour before 10 μG intratracheal LPS, bronchoalveolar lavage 24 hours after LPS
Procedure: Migration of cells in the bronchoalveolar space after activation with bacterial LPS (lipopolysaccharide).
Mice weighing 28 to 30 g are stimulated by means of an intratracheal exposure to 10 μG of LPS. 24 hours after the injection of LPS, the animals are anaesthetized with pentobarbital and a bronchoalveolar lavage is performed. The lavage fluids are recovered and are centrifuged, and the cells are then resuspended. The number of cells is counted, differentiating the eosinophil, neutrophil and mononuclear cells according to standard morphological criteria.
The intratracheal injection of LPS induces a considerable increase in the number of mononuclear cells and neutrophils in the bronchoalveolar space of the mice.

[3] = STRATUS clinical study, nicotine addiction; cited from earlier work

Cc1c(C(=O)NN2CCCCC2)nn(-c2ccc(Cl)cc2Cl)c1-c1ccc(Cl)cc1 [rimonabant, N-piperidino-5-(4-chlorophenyl)-1-(2,4-dichlorophenyl)-4-methylpyrazole-3-carboxamide]
effect on hunger, calorie intake and body weight [1]: reduces hunger, calorie intake, and the body weight of obese patients | ED50 ([2]; Mononuclear cell, read-out: ED50, inhibition of migration of the mononuclear cells): 1.9 mg/kg | ED50 ([2]; Neutrophil, read-out: effective dose 50 (ED50), inhibition of migration of the neutrophil cells): 2.3 mg/kg | inhibition of migration of the neutrophil cells ([2]; i.p. 1 hour before intratracheal LPS): more than 80% | effect on giving up smoking [3]: facilitates giving up smoking
